Laboratory results as given in patent US9302999B2, “Substituted triazoles as herbicides” (E. I. DU PONT DE NEMOURS AND COMPANY, priority 2012, dated 2016).

Assays:
Type in all cases: in vivo
[1] = tested on: Russian thistle (Salsola kali); assay: Test C pre-/postemergence: Russian thistle; conditions: Preemergence
Summary of the method: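 Preemergence on seeds in loam/sand, postemergence on 2–18 cm (1–4-leaf) plants in peat-based medium; compounds in non-phytotoxic solvent with surfactant. After 13–15 days in greenhouse, visual rating versus controls, 0 (no effect) to 100 (complete control).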

[2] = tested on: barnyardgrass (Echinochloa crus-galli); assay: Test C flooded paddy test: barnyardgrass; conditions: scale 0 to 100 (0 no effect, 100 complete control)
Summary of the method: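 Plants were grown to the 2-leaf stage, pots flooded to 3 cm above soil, and test compounds applied directly to the paddy water, with that depth held throughout. After 13 to 15 days in a greenhouse, injury was visually rated against controls on a 0 (no effect) to 100 (complete control) scale.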

[3] = tested on: wheat, spring (spring wheat, Triticum aestivum); assay: Test D pre-/postemergence: wheat, spring
Source text: Seeds of plant species selected from bluegrass (annual bluegrass, Poa annua), blackgrass (Alopecurus myosuroides), canarygrass (Phalaris minor), chickweed (common chickweed, Stellaria media), galium (catchweed bedstraw, Galium aparine), bromegrass, downy (downy bromegrass, Bromus tectorum), field poppy (Papaver rhoeas), field violet (Viola arvensis), foxtail, green (green foxtail, Setaria viridis), deadnettle (henbit deadnettle, Lamium amplexicaule), ryegrass, Italian (Italian ryegrass, Lolium multiflorum), kochia (Kochia scoparia), lambsquarters (Chenopodium album), oilseed rape (Brassica napus), pigweed (Amaranthus retroflexus), Russian thistle (Salsola iberica), chamomile (scentless chamomile, Matricaria inodora), speedwell (bird's-eye speedwell, Veronica persica), barley, spring (spring barley, Hordeum vulgare), wheat, spring (spring wheat, Triticum aestivum), buckwheat, wild (wild buckwheat, Polygonum convolvulus), mustard, wild (wild mustard, Sinapis arvensis), oat, wild (wild oat, Avena fatua), radish, wild (wild radish, Raphanus raphanistrum), windgrass (Apera spica-venti), barley, winter (winter barley, Hordeum vulgare), and wheat, winter (winter wheat, Triticum aestivum) were planted into a silt loam soil and treated preemergence with test chemicals formulated in a non-phytotoxic solvent mixture which included a surfactant. At the same time, these same crop and weed species were planted in pots containing the planting medium comprising spaghnum peat moss, vermiculite, wetting agent and starter nutrients and treated with postemergence applications of the test chemicals formulated in the same manner. Plants ranged in height from 2 to 18 cm (1- to 4-leaf stage).
(§1) Treated plants and controls were maintained in a controlled growth environment for 14 to 21 days after which time all species were compared to controls and visually evaluated. Plant response ratings, summarized in Table D, are based on a scale of 0 to 100 where 0 is no effect and 100 is complete control. A dash (-) response means no test result.

[4] = tested on: ragweed (common ragweed, Ambrosia elatior); assay: Test F pre-/postemergence: ragweed; conditions: Preemergence
Source text: Seeds of plant species selected from corn (Zea mays), soybean (Glycine max), velvetleaf (Abutilon theophrasti), lambsquarters (Chenopodium album), poinsettia, wild (wild poinsettia, Euphorbia heterophylla), pigweed, palmer (palmer pigweed, Amaranthus palmeri), waterhemp (common waterhemp, Amaranthus rudis), surinam grass (Brachiaria decumbens), crabgrass, Brazil (Brazilian crabgrass, Digitaria horizontalis), panicum, fall (fall panicum Panicum dichotomiflorum), crabgrass, large (large crabgrass, Digitaria sanguinalis), foxtail, giant (giant foxtail, Setaria faberii), foxtail, green (green foxtail Setaria viridis), goosegrass (Eleusine indica), ragweed (common ragweed, Ambrosia elatior), barnyardgrass (Echinochloa crus-galli), sandbur (southern sandbur, Cenchrus echinatus), arrowleaf sida (Sida rhombifolia), ryegrass, Italian (Italian ryegrass, Lolium multiflorum), dayflower, VA (Virginia (VA) dayflower, Commelina virginica), field bindweed (Convolvulus arvensis), cocklebur (common cocklebur, Xanthium strumarium), morningglory (Ipomoea coccinea), nightshade (eastern black nightshade, Solanum ptycanthum), kochia (Kochia scoparia), nutsedge, yellow (yellow nutsedge, Cyperus esculentus), johnsongrass (Sorghum halepense), smartweed (ladysthumb smartweed, Polygonum persicaria), and beggarticks (hairy beggarticks, Bidens pilosa), were planted into a silt loam soil and treated preemergence with test chemicals formulated in a non-phytotoxic solvent mixture which included a surfactant. At the same time, plants selected from these crop and weed species and also pigweed (Amaranthus retroflexus), waterhemp_RES1 (ALS/Triazine resistant common waterhemp, Amaranthus rudis) and waterhemp_RES2 (ALS/HPPD resistant common waterhemp, Amaranthus rudis) were planted in pots containing a planting medium comprising spaghnum peat moss, vermiculite, wetting agent and starter nutrients treated with postemergence applications of some of the test chemicals formulated in the same manner. Plants ranged in height from 2 to 18 cm for postemergence treatments (1- to 4-leaf stage).
as §1, with “greenhouse” for “controlled growth environment”, “days,” for “days”, “E,” for “D,”

[5] = 31 g ai/ha, scale of 0 to 100, 0 is no effect, 100 is complete control
[6] = 125 g ai/ha, scale 0 to 100, 0 no effect, 100 complete control
[7] = 250 g ai/ha, scale 0 to 100, 0 no effect, 100 complete control
[8] = Postemergence, 31 g ai/ha, scale 0 to 100 (0 no effect, 100 complete control)
[9] = Postemergence, 62 g ai/ha, scale 0 to 100 (0 no effect, 100 complete control)
[10] = Postemergence, 125 g ai/ha, scale 0 to 100, 0 no effect, 100 complete control
[11] = Postemergence, 16 g ai/ha, scale 0 to 100
[12] = Preemergence, 16 g ai/ha, scale 0 to 100, 0 no effect, 100 complete control
[13] = Preemergence, 31 g ai/ha, scale 0 to 100, 0 no effect, 100 complete control
[14] = Preemergence, 62 g ai/ha, scale 0 to 100
[15] = Preemergence, 125 g ai/ha, scale 0 to 100
[16] = 16 g ai/ha, scale 0 to 100, 0 no effect, 100 complete control
[17] = 31 g ai/ha, scale 0 to 100, 0 no effect, 100 complete control
[18] = 62 g ai/ha, scale of 0 to 100, 0 is no effect, 100 is complete control

SMILES | Plant response rating, Russian Thistle [1, 6] | Plant response rating, Russian Thistle [1, 7] | Plant response rating: Wheat, Spring [3, 8] | Plant response rating: Wheat, Spring [3, 9] | Plant response rating: Wheat, Spring [3, 10] | Plant response rating, Wheat, Spring [3, 11] | Plant response rating, Wheat, Spring [3, 12] | Plant response rating, Wheat, Spring [3, 13] | Plant response rating, Wheat, Spring [3, 14] | Plant response rating, Wheat, Spring [3, 15] | Plant response rating, Ragweed [4, 16] | Plant response rating, Ragweed [4, 17] | Plant response rating, Ragweed ([4]; 125 g ai/ha, scale 0 to 100) | Plant response rating, Ragweed ([4]; 250 g ai/ha, scale 0 to 100) | further results
Cc1nn(-c2ccc(C(F)(F)F)cc2)nc1Oc1ccnc(C(F)(F)F)c1 [Compound 120] | 85 | 100 | 10 | 10 | 20 | 10 | 0 | 0 | 5 | 10 |  |  |  |  | Plant response rating, Russian Thistle [1, 5]: 0; Plant response rating, Barnyardgrass ([2]; Flood (flooded paddy test), 125 g ai/ha, visual rating after 13 to 15 days): 80; Plant response rating, Barnyardgrass ([2]; Flood (flooded paddy test), 250 g ai/ha, visual rating after 13 to 15 days): 80; Plant response rating, Barnyardgrass ([2]; Flood, 62 g ai/ha): 65; Plant response rating: Wheat, Spring ([3]; Postemergence, 250 g ai/ha, scale 0 to 100 (0 no effect, 100 complete control)): 25; Plant response rating, Wheat, Spring ([3]; Preemergence, 250 g ai/ha, scale 0 to 100): 20
COc1nn(-c2cccc(F)c2)nc1Cc1ccnc(C(F)(F)F)c1 [Compound 139] |  | 5 |  |  |  |  |  |  |  |  | 0 | 0 | 0 | 0 | 
Cc1nn(-c2ccc(F)cc2F)nc1Oc1ccnc(C(F)(F)F)c1 [Compound 146] | 80 | 95 |  |  |  |  |  |  |  |  | 0 | 0 | 0 | 25 | Plant response rating, Russian Thistle [1, 5]: 0; Plant response rating, Russian Thistle [1, 18]: 0
Cc1nn(-c2ccc(C(F)(F)F)c(F)c2)nc1Oc1ccnc(C(F)(F)F)c1 [Compound 148] | 95 | 95 | 10 | 20 | 25 | 10 | 0 | 0 | 0 | 5 | 0 | 0 | 75 | 75 | Plant response rating, Russian Thistle [1, 18]: 85
CCc1nn(-c2ccc(F)cc2)nc1Cc1ccnc(C(F)(F)F)c1 [Compound 154] |  |  |  |  |  |  |  |  |  |  | 0 | 0 | 0 | 40 | 
CCc1nn(-c2ccc(C(F)(F)F)cc2)nc1Cc1ccnc(C(F)(F)F)c1 [Compound 155] |  |  | 20 | 25 | 50 | 15 | 0 | 0 | 0 | 5 |  |  | 50 | 80 | 
CCc1nn(-c2ccc(C(F)(F)F)cc2)nc1Oc1ccnc(C(F)(F)F)c1 [Compound 169] |  |  |  |  |  |  |  |  |  |  | 0 | 0 | 60 | 100 | 
CCOc1nn(-c2ccc(F)cc2)nc1Cc1ccnc(C(F)(F)F)c1 [Compound 196, 4-[[5-ethoxy-2-(4-fluorophenyl)-2H-1,2,3-triazol-4-yl]methyl]-2-(trifluoromethyl)pyridine] | 90 | 90 | 25 | 35 | 35 | 15 | 0 | 5 | 5 | 25 | 0 | 0 | 50 |  | Plant response rating, Russian Thistle ([1]; 31 g ai/ha, scale 0 (no effect) to 100 (complete control)): 90; Plant response rating, Russian Thistle ([1]; 62 g ai/ha, scale 0 to 100, 0 no effect, 100 complete control): 90; Plant response rating, Ragweed ([4]; 8 g ai/ha, scale 0 to 100, 0 no effect, 100 complete control): 0
